Test results taken from patent publication US20060069132A1, “Azolecarboxamide herbicides” (priority 2004, published 2006).

Tests used:
barnyardgrass [1] = assay: Test A pre-/postemergence herbicide test; type: in vivo, Echinochloa crus-galli
How it was run: (§1)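 Pre: seeded sandy loam, directed soil spray, compound in non-phytotoxic solvent + surfactant. Post: 1–2-leaf plants (2–10 cm), sprayed to runoff. Greenhouse ~10 d; visual injury vs untreated, 0–100 scale.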

ducksalad = assay: Test B flooded paddy test; type: in vivo, Heteranthera limosa; conditions: scale 0 to 100 (0 no effect, 100 complete control)
How it was run: (§2)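 Paddy species grown to the 2-leaf stage under flooding; blackgrass sprayed postemergence at 2–18 cm (1- to 4-leaf stage). Plants kept in a greenhouse for 13 to 15 days, then visually rated against controls on 0 (no effect) to 100 (complete control).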

rice = assay: Test B flooded paddy test; type: in vivo, Oryza sativa; conditions: scale 0 to 100 (0 no effect, 100 complete control)
How it was run: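 Read-out: visual comparison with controls, scored 0 to 100, where 100 means complete control and 0 no effect. Formulated chemicals were applied postemergence to plants 2–18 cm tall (1- to 4-leaf), or to flooded-paddy plants at the 2-leaf stage, then held 13 to 15 days under glass.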

large crabgrass = assay: Test A pre-/postemergence herbicide test; type: in vivo, Digitaria sanguinalis
How it was run: as §1

velvetleaf = assay: Test A pre-/postemergence herbicide test; type: in vivo, Abutilon theophrasti
How it was run: as §1

giant foxtail = assay: Test A pre-/postemergence herbicide test; type: in vivo, Setaria faberi
How it was run: as §1

[2] = tested on: small flower umbrella sedge; assay: Test B flooded paddy test; type: in vivo, Cyperus difformis; conditions: scale 0 to 100 (0 no effect, 100 complete control)
How it was run: as §2

morningglory = assay: Test A pre-/postemergence herbicide test; type: in vivo, Ipomoea spp.
How it was run: as §1

barnyardgrass [3] = assay: Test B flooded paddy test; type: in vivo, Echinochloa crus-galli; conditions: scale 0 to 100 (0 no effect, 100 complete control)
How it was run: as §2

redroot pigweed = assay: Test A pre-/postemergence herbicide test; type: in vivo, Amaranthus retroflexus
How it was run: as §1

[4] = Postemergence, 125 g ai/ha, 0 to 100 scale, 0 no effect, 100 complete control
[5] = Postemergence, 500 g ai/ha, 0 to 100 scale, 0 no effect, 100 complete control
[6] = preemergence, 125 g ai/ha, visual injury, 0 to 100 scale (0 no effect, 100 complete control)
[7] = preemergence, 500 g ai/ha, visual injury, 0 to 100 scale (0 no effect, 100 complete control)

| SMILES | Barnyardgrass plant response rating (barnyardgrass [1]; [4]) | Barnyardgrass plant response rating (barnyardgrass [1]; [5]) | Barnyardgrass plant response rating (barnyardgrass [1]; [6]) | Barnyardgrass plant response rating (barnyardgrass [1]; [7]) | Ducksalad plant response rating (ducksalad; 125 g ai/ha) | Ducksalad plant response rating (ducksalad; 500 g ai/ha) | Rice plant response rating (rice; 125 g ai/ha) | Rice plant response rating (rice; 500 g ai/ha) | Crabgrass, Large plant response rating (large crabgrass; [4]) | Crabgrass, Large plant response rating (large crabgrass; [5]) | Crabgrass, Large plant response rating (large crabgrass; [6]) | Crabgrass, Large plant response rating (large crabgrass; [7]) | Velvetleaf plant response rating (velvetleaf; [4]) | Velvetleaf plant response rating (velvetleaf; [5]) | Velvetleaf plant response rating (velvetleaf; [6]) | Velvetleaf plant response rating (velvetleaf; [7]) | Foxtail, Giant plant response rating (giant foxtail; [4]) | Foxtail, Giant plant response rating (giant foxtail; [5]) | Foxtail, Giant plant response rating (giant foxtail; [6]) | Foxtail, Giant plant response rating (giant foxtail; [7]) | other results |
| --- | --- | --- | --- | --- | --- | --- | --- | --- | --- | --- | --- | --- | --- | --- | --- | --- | --- | --- | --- | --- | --- |
| CCn1nc(C(C)(C)C)nc1C(=O)Nc1cccc(C(=O)N(C)C)c1 [Compound 448] | 90 | 90 | 95 | 100 | 70 | 80 | 80 | 90 | 75 | 80 | 45 | 85 | 60 | 80 | 15 | 85 | 85 | 90 | 80 | 100 | Sedge, Umbrella plant response rating ([2]; 125 g ai/ha): 90; Sedge, Umbrella plant response rating ([2]; 500 g ai/ha): 90; Morningglory plant response rating (morningglory; [4]): 15; Morningglory plant response rating (morningglory; [5]): 55; Morningglory plant response rating (morningglory; [6]): 60; Morningglory plant response rating (morningglory; [7]): 60; Barnyardgrass plant response rating (barnyardgrass [3]; 125 g ai/ha): 90; Barnyardgrass plant response rating (barnyardgrass [3]; 500 g ai/ha): 100; Pigweed plant response rating (redroot pigweed; [4]): 70; Pigweed plant response rating (redroot pigweed; [5]): 90; Pigweed plant response rating (redroot pigweed; [6]): 100; Pigweed plant response rating (redroot pigweed; [7]): 100 |
| CCn1nc(C(C)(C)C)nc1C(=O)Nc1cccc(OC(F)(F)F)c1 [Compound 449] | 20 | 35 | 45 | 90 | 20 | 70 | 10 | 50 | 20 | 30 | 35 | 80 | 10 | 20 | 0 | 10 | 20 | 50 | 60 | 90 | Sedge, Umbrella plant response rating ([2]; 125 g ai/ha): 30; Sedge, Umbrella plant response rating ([2]; 500 g ai/ha): 80; Morningglory plant response rating (morningglory; [4]): 5; Morningglory plant response rating (morningglory; [5]): 15; Morningglory plant response rating (morningglory; [6]): 0; Morningglory plant response rating (morningglory; [7]): 5; Barnyardgrass plant response rating (barnyardgrass [3]; 125 g ai/ha): 0; Barnyardgrass plant response rating (barnyardgrass [3]; 500 g ai/ha): 30; Pigweed plant response rating (redroot pigweed; [4]): 20; Pigweed plant response rating (redroot pigweed; [5]): 40; Pigweed plant response rating (redroot pigweed; [6]): 0; Pigweed plant response rating (redroot pigweed; [7]): 50 |
| CCc1nn(C(C)(C)C)cc1C(=O)Nc1cc(C(=S)N(C)C)ccc1F [Compound 454] | 40 | 80 | 70 | 85 | 50 | 70 | 60 | 80 | 10 | 70 | 50 | 85 | 50 | 70 | 0 | 20 | 20 | 70 | 10 | 85 | Sedge, Umbrella plant response rating ([2]; 125 g ai/ha): 60; Sedge, Umbrella plant response rating ([2]; 500 g ai/ha): 70; Morningglory plant response rating (morningglory; [4]): 10; Morningglory plant response rating (morningglory; [5]): 50; Morningglory plant response rating (morningglory; [6]): 0; Morningglory plant response rating (morningglory; [7]): 20; Barnyardgrass plant response rating (barnyardgrass [3]; 125 g ai/ha): 50; Barnyardgrass plant response rating (barnyardgrass [3]; 500 g ai/ha): 90; Pigweed plant response rating (redroot pigweed; [4]): 40; Pigweed plant response rating (redroot pigweed; [5]): 70; Pigweed plant response rating (redroot pigweed; [6]): 20; Pigweed plant response rating (redroot pigweed; [7]): 90 |
